US20140243319A1, “TREATMENTS TARGETING GAMMA-SYNUCLEIN EXPRESSION LEVELS” (GEORGETOWN UNIVERSITY, priority 2011, published 2014)

What was measured:
[1] = system: cells that expressed γ-Syn; test: MTT cell death assay in cells that express γ-Syn; format: cell-based
Text: Cells were selected that expressed γ-Syn.

[2] = system: γ-Syn; test: γ-Syn protein expression in selected γ-Syn expressing cells; format: cell-based; settings: 48 h
Text: Cells were selected that expressed γ-Syn. […] We next measured cell death by MTT assays and found a direct correlation between loss of γ-Syn protein expression and cell death.

[3] = system: γ-Syn; test: Western blot of γ-Syn protein in brain of WKY rats; format: in vivo, rat; settings: brains of WKY rats, FIG. 3
Text: In brain, γ-Syn is expressed in presynaptic terminals of monoaminergic neurons, and our lab has shown that this protein can regulate the function of norepinephrine and serotonin transporters. Unlike α-Syn, whose role in neurodegenerative diseases such as Parkinson's disease is well established, a role for γ-Syn in neurodegeneration is not known. γ-Syn is overexpressed in the frontal cortex of the WKY, a rat model of depression. […] The ability of γ-Syn to bind tightly to MTs may be one mechanism by which its overexpression in carcinomas protects cells from the MT actions of chemotherapeutic agents, for example, taxol, nocodazole, vinblastine and colchicine.

[4] = system: γ-Syn; test: Western blot of γ-Syn levels in T47D cells; format: cell-based; settings: for decrease of γ-Syn levels: 48 h pretreatment, Western blot
Protocol: Various cancer cell lines were tested for expression of γ-Syn by Western blots. (FIG. 4) Two breast carcinoma cell lines were tested for γ-Syn expression by Western blots, and human brain (hIFG) was used as a positive control.

[5] = system: BxPC-3; test: MTT cell viability assay in BxPC-3 pancreatic cancer cells; format: cell-based; settings: Homo sapiens; BxPC-3 cells; read-out: IC50 values of cell death
[6] = system: HT-29; test: MTT cell viability assay in HT-29 cells; format: cell-based; settings: Homo sapiens, read-out: IC50 values of cell death
[7] = system: DU145; test: MTT cell viability assay in DU145 cells; format: cell-based; settings: Homo sapiens, DU-145, read-out: IC50 values of cell death
[8] = system: SK-BR-3; test: MTT cell viability assay in SK-BR-3 cells; format: cell-based; settings: Homo sapiens, read-out: IC50 values of cell death
[9] = system: HCT 116; test: MTT cell viability assay in HCT 116 cells; format: cell-based; settings: Homo sapiens, read-out: IC50 values of cell death
[10] = system: T47D cells; test: MTT cell viability assay in T47D breast cancer cells
[11] = system: HeLa; test: MTT cell viability assay in HeLa cells; format: cell-based; settings: Homo sapiens, read-out: IC50 values of cell death
[12] = system: Colo-357; test: MTT cell viability assay in Colo-357 pancreatic cancer cells; format: cell-based; settings: Homo sapiens, COLO357; Colo-357 cells; read-out: IC50 values of cell death
[13] = system: cells that did not express any γ-Syn; test: MTT cell death assay in cells that do not express γ-Syn; format: cell-based; settings: cells without γ-Syn expression, 50 μM DMI
[14] = system: γ-Syn; settings: rat depression model, Jeannotte et al. 2009; cited from earlier work
[15] = system: PC cells; format: cell-based; settings: DMI at clinically relevant concentrations
[16] = system: A549; test: MTT cell viability assay in A549 cells; format: cell-based; settings: Homo sapiens, read-out: IC50 values of cell death
[17] = system: ASPC-1; test: MTT cell viability assay in ASPC-1 pancreatic cancer cells; format: cell-based; settings: Homo sapiens, ASPC1; ASPC-1 cells; read-out: IC50 values of cell death
[18] = system: WKY rats; test: Depression model, behavior of WKY rats; format: in vivo, rat; settings: for mobility and climbing behaviors: WKY rats, chronic administration, FIG. 1
[19] = system: γ-Syn; test: γ-Syn expression in pancreatic cancer (PC) cells; format: cell-based; settings: clinically relevant concentrations
[20] = system: MD-MB-231; test: MTT cell viability assay in MD-MB-231 cells; format: cell-based; settings: read-out: IC50 values of cell death
[21] = system: WKY rats; settings: rat depression model, Jeannotte et al. 2009; cited from earlier work
[22] = T47D cells, 48 h, 25 μM single agent, MTT

SMILES: CNCCCN1c2ccccc2CCc2ccccc21 [DMI, desipramine]
- cell death ([1]; each compound used alone): ~15%
- cell death ([1]; γ-Syn expressing cells, 50 μM DMI, MTT): > 90%
- γ-Syn protein expression (in words) ([2]; 0-50 μM DMI): dose-dependent decrease in γ-Syn protein expression
- γ-Syn protein expression decreased ([2]; 50 μM DMI): > 85%
- γ-Syn protein levels (Western blot) [3]: reduced levels of γ-Syn protein
- γ-Syn protein levels (Western blot) ([3]; listed as desipramine): reduced
- γ-Syn levels (in words) ([4]; 10 μM and 50 μM): reduces γ-Syn levels
- decrease of γ-Syn levels ([4]; 10 μM DMI): 40%
- decrease of γ-Syn levels ([4]; 50 μM DMI): 85%
- IC50 [5]: > 50 µM
- IC50 [6]: 38 µM
- IC50 [7]: > 50 µM
- IC50 [8]: 40 µM
- IC50 [9]: 43 ± 3 µM
- cell viability ([10]; 10 μM of either drug alone): ~80%
- cell viability [10, 22]: 58%
- cell viability ([10]; T47D cells, 48 h, 50 μM DMI alone, MTT (data not shown)): ~5%
- IC50 ([10]; read-out: IC50 values of cell death, T47D cells): 35 µM
- IC50 [11]: 43 µM
- IC50 [12]: > 50 µM
- cell death (in words) [13]: no cell death
- expression levels of γ-Syn [14]: reduces expression levels of γ-Syn
- cell death [15]: > 60%
- IC50 [16]: > 50 µM
- IC50 [17]: > 50 µM
- depressive symptoms ([18]; WKY rat, chronic treatment for 2 weeks): relief in the depressive symptoms
- mobility and climbing behaviors [18]: improvements in mobility and climbing behaviors
- γ-Syn expression (in words) [19]: reduce γ-Syn expression
- IC50 [20]: > 50 µM
- depressive state [21]: relieves their depressive state

SMILES: NNCCc1ccccc1 [phenelezine]
- mobility and climbing behaviors [18]: improvements in mobility and climbing behaviors

SMILES: CC(=O)O[C@H]1C(=O)[C@@]2(C)[C@H]([C@H](OC(=O)c3ccccc3)[C@]3(O)C[C@H](OC(=O)[C@H](O)[C@@H](NC(=O)c4ccccc4)c4ccccc4)C(C)=C1C3(C)C)[C@]1(OC(C)=O)CO[C@@H]1C[C@@H]2O [taxol, Paclitaxel]
- cell death ([1]; each compound used alone): ~15%
- cell viability ([10]; 10 μM of either drug alone): ~80%
- sensitivity of cells to taxol (in words) ([10]; T47D cells expressing γ-Syn): resistant to taxol treatment
- cell viability [10, 22]: 52%
